Legend:
FGFR2-Fc = target: T1, FGFR2-Fc (Homo sapiens, UniProt P21802); assay: Enzyme linked FGF2 binding assay with FGFR2-Fc; settings: concentrations of 1 to 1000 nM, FGF-2 + heparin
T1 construct: consisted of human extracellular domain FGFR2α (Inc) and Fc-fragment of human IgG1
Description: Non-radioactive enzyme linked FGF2 binding assay was performed in order to assess if RPT835 influences on binding of FGFR2 and ligand (FGF-2). Recombinant chimeric protein FGFR2-Fc, which consisted of human extracellular domain FGFR2α (Inc) and Fc-fragment of human IgG1 was used in the binding assay of FGF-2. FGFR2α contained all the 3 immunoglobulin-like domains and represented domain IIIc FGFR2 with high affinity to FGF-2. A 96-cavity plate tablet was covered with FGFR2-Fc protein, and then the following was added into the cavities:
3) inhibitor RPT835 in various concentrations+FGF-2+heparin
4) a part of the cavities remained without stimulators (FGF-2+heparin) and RPT835 (negative control).
After incubation, enzyme-linked immunoassay was carried out using the corresponding antibodies and subsequent determination of OD650 (optic density with wavelength of 650 nm).

[1] = tested on: Mel Kor metastatic melanoma cells; assay: Crystal Violet proliferation assay, Mel Kor; assay type: cell-based; settings: hardly expressed FGFR2, bFGF 100 ng/ml, 7 days
Text: This research used additional cell lines: SKOV3 (ovarian cancer, ATCC # HTB-77), HS578T (breast cancer, ATCC # HTB-126), T47D (breast cancer, ATCC #HTB-1336), modified line of non-small cells lung cancer A549, line of metastatic melanoma of skin Mel Kor (RF Patent No. 2287578), and additional study of antiangiogenic activity—cell line SVEC-4-10 (endothelial cells, ATCC #CRL-2181).
The cells were cultivated in environment RPMI-1640 (PANECO) (SKOV3, HS578T, T47D, Mel-Kor) or DMEM (PANECO) (SVEC-4-10) containing 10% of embryonal serum cattle (FCS, HyClone), 2 mM glutamine (PANECO), antibiotics (100 IU/mL penicillin and […] streptomycin (all PANECO)) at 37° C. and 5% CO2. Cells at 70-80% monolayer were used for the experiments.
The cells were planted in low density (30 t of cells/ml) in triplets on a 96-cavity plate in an environment containing 0.1% of FCS serum. […] Growth of cells was determined by the modified “Crystal Violet mitogenic method” for 7 days after the experiment start. […] The dye was dissolved in ethanol and measured on a spectrophotometer at 540-560 nm. The curve of cell proliferative activity inhibition was built by the dependence of the percent of the cell quantity (Y axis) on concentration of inhibitor RPT835 in the cavity of the plate (X axis). […]

[2] = tested on: triple negative breast cancer HS578T; assay: Tumor growth of HS578T xenograft in nude mice; assay type: in vivo; settings: for Slowdown of tumor growth: 30 mg/kg daily; for average size of tumor: 30 mg/kg daily through a stomach tube
Description: Females of immunodeficient mice (nude) at the age of 8 weeks were administered 2×10^6 tumor cells of human cell lines with various expression of FGFR2: • cell line of triple-negative breast cancer SUM52PE strongly expressing FGFR2 (purchased from Asterand, Inc. (Detroit, Mich.) • cell line of triple negative breast cancer HS578T weakly expressing FGFR2 (purchased from ATCC (CRL-125) • cell line of non-small cell lung cancer NCI-H226 not expressing FGFR2 (purchased from ATCC (CRL-5826)
After the tumor growth got established (1 mm^3), the mice were divided into control and treatment groups in accordance with the tumor type.
Control group 2 (N=10): HS578T, administration of water through a stomach tube, daily.
Treatment group 2 (N=10): HS578T, administration of inhibitor RPT835 through a stomach tube in a dose of 30 mg/kg, daily.
Size of tumor and weight of animals were measured every 3 day. The mice underwent euthanasia when the tumor reached the size of 2,000 mm^3 or on the 60 day of the experiment.

[3] = in vivo
Text: Besides, acute toxicity of inhibitor RPT835 was studied in the following volume in a separate research: • Acute toxicity of the medicine was researched. […] The state of the animals after acute administration testifies of good tolerability of the medicine in doses exceeding the maximal therapeutic ones (about 4.3 mcg/kg) tens—hundreds of times. […]

T1 sequence (P21802 22-377 limits assumed): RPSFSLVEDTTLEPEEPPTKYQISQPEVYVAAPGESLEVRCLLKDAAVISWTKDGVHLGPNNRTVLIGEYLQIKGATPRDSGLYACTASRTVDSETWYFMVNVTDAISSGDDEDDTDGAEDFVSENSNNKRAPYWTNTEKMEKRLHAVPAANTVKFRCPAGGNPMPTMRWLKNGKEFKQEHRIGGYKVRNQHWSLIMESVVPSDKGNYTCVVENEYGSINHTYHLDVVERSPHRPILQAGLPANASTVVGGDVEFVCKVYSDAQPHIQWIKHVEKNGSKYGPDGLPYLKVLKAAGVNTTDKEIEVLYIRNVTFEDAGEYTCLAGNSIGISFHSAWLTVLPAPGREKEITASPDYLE

## Cc1cc([N+](=O)[O-])c(NS(=O)(=O)c2cccc(C(=O)O)c2)cc1-c1cccnc1 [RPT835, 3-(N-(4-methyl-2-nitro-5-(pyridin-3-yl)phenyl)sulfamoyl)benzoic acid]
FGFR2-Fc
  binding of FGF-2 and FGFR2-Fc: did not influence on binding of ligand with the receptor
[1]
  inhibition of proliferative activity: did not block
[2]; 31st day
  Slowdown of tumor growth: 33.2%
  average size of tumor: 703±89.1 mm3
[2]; 40th day
  Slowdown of tumor growth: 30.6%
[2]; 40th day, P=0.01
  average size of tumor: 1,104±162.2 mm3
[3]
  irritating effect on the mucous membrane of the gastrointestinal tract: does not have an irritating effect
